Data reported in patent US6913892B1, “Method of obtaining compositions comprising Y4 specific compounds” (H. Lundbeck A/S, priority 1993, dated 2005).
Values belong to the substance of their own block, whether it stands above or below them.

What was measured:
[1] = molecular target: T1, human hp25a (Y4) receptor (Homo sapiens, UniProt P50391); experiment: Competitive displacement / binding of 125I-PYY, membranes of COS-7 cells transiently expressing hp25a (human Y4) receptors
T1 construct: The entire coding region of hp25a (1127 bp); expressed in transfected cells; host or cells: COS-7

[2] = molecular target: T2, Y1 receptor (Homo sapiens, UniProt P25929); experiment: Competitive displacement / binding of 125I-PYY, membranes of COS-7 cells transiently expressing human Y1 receptors; set-up: expressed in transfected cells; host or cells: COS-7
T2 sequence (P25929 1-384): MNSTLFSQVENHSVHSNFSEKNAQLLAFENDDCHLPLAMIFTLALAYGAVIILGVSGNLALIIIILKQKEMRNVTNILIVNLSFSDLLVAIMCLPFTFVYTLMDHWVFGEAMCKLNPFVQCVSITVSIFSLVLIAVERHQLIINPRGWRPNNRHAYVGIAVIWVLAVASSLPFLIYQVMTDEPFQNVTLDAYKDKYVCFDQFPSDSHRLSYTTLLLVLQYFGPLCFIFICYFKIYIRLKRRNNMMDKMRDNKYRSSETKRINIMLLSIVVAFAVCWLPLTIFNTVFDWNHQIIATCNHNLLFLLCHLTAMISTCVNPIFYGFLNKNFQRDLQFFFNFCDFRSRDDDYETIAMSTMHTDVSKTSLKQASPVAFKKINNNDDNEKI

[3] = molecular target: Y3 receptor; details: Table 1, rank orders from published reports; cited from earlier work
[4] = molecular target: PP receptor; details: Table 1, rank orders from published reports; cited from earlier work
[5] = molecular target: T2, Y1 receptor; details: Table 1, rank orders from published reports; cited from earlier work
[6] = tested on: PYY-preferring receptor; details: Laburthe et al., 1986, 1990; cited from earlier work
[7] = N-terminal deletion of porcine NPY

T1 sequence (P50391 whole entry): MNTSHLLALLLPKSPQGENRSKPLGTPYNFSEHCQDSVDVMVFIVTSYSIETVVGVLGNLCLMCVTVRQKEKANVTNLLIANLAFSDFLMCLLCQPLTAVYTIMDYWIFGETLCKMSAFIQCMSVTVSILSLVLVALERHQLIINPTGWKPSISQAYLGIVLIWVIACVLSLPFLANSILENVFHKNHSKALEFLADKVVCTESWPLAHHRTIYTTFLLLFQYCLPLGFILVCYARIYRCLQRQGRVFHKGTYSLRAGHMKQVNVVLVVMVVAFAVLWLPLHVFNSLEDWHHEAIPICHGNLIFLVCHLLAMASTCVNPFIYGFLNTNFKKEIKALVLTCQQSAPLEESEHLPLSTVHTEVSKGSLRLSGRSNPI

Substance: ^125I-PYY
observed association rate (Kobs) ([1]; hp25a, 0.06 nM 125I-PYY): 0.12 ± 0.02 min⁻¹ | observed association rate (Kobs) ([2]; human Y1 in COS-7): 0.06 ± 0.02 min⁻¹

Substance: [Pro^34]NPY: NPY analog with Pro34 (Table 1)
Affinity (−pKi or −pEC50), Y3 [3]: 9 to 8

Substance: Neuropeptide Y [NPY]
Affinity (−pKi or −pEC50), Y3 [3]: 10 to 9 | Affinity (−pKi or −pEC50), PP [4]: <6

Substance: NPY2-36: NPY fragment 2-36, species not stated (Table 1)
Affinity (−pKi or −pEC50), Y1 [5]: 9 to 8

Substance: [LEU^31, Pro^34]NPY: analog of NPY modified at residues 31 and 34, species not stated (Table 1)
Affinity (−pKi or −pEC50), PP [4]: 9 to 8

Substance: PYY: peptide YY, species not stated at the place
Affinity (−pKi or −pEC50), Y3 [3]: <6 | higher affinity for PYY than for NPY [6]: 5-10 fold

decrease in affinity compared with full length parent peptide, hp25a [1, 7]: 33 fold | decrease in affinity compared with full length parent peptide, human Y1 receptors [2, 7]: 1000 fold
Substance: NPY13-36: NPY carboxyl-terminal fragment 13-36, species not stated; b153 folds follow porcine data
